The values below come from patent EP0326329B1, “Quinazoline derivatives useful as insecticides” (Dow AgroSciences LLC, priority 1988, dated 1989).

Common to all, as to format: in vivo
The test system of test [1] is Erysiphe graminis tritici (powdery mildew). Put plainly: Greenhouse Test 1, foliar spray fungicide screen (POWD MDEW), host wheat. The note with it: disease control rating, 400 ppm (+++ at 100 ppm).
Test [2] concerns Pyricularia oryzae (rice blast). To be noted: disease control rating, foliar spray, host rice; 400 ppm (+++ at 100 ppm).
Test [3] deals with Puccinia recondita tritici (leaf rust). Put plainly: Greenhouse Test 1, foliar spray fungicide screen (LEAF RUST), host wheat. The note with it: disease control rating, 400 ppm (+++ at 100 ppm).
In test [4] the test system is Botrytis cinerea (gray mold). Put plainly: Greenhouse Test 1, foliar spray fungicide screen (GRAY MOLD), host grape berries. To be noted: disease control rating, 400 ppm (+++ at 100 ppm).
In test [5] the test system is Pseudoperonospora cubensis (downy mildew). Description: Greenhouse Test 1, foliar spray fungicide screen (DOWN MDEW), host squash. To be noted: disease control rating, 400 ppm (+++ at 100 ppm).
In test [6] the test system is Southern corn rootworm (Diabrotica undecimpuctata howardi Barber). Description: Mite/insect screen, soil treatment (CRW). The note with it: Diabrotica, percent mortality, soil treatment, read-out: CRW RESULTS %; for mortality at 24 ppm: CRW rate 24.00 ppm; for mortality at 12 ppm: CRW rate 12.00 ppm. In a few lines:
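Five 2–3 instar larvae were placed on dry sandy soil with a presoaked corn seed after the soil had received 1 mL of compound solution and dried 6–12 h; cups were kept capped at 23°C. Mortality (%) and phytotoxicity were read after standard exposure. Formulation: acetone/alcohol with emulsifiers, water-diluted.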

For test [7], the system named is southern armyworm (Spodopetra eridania Cramer). Description: Mite/insect screen, sprayed squash leaves (SAW). The note with it: Spodoptera eridania, percent mortality, read-out: SAW RESULTS %; for mortality at 400 ppm: spray rate 400 ppm; for mortality at 200 ppm: spray rate 200 ppm. In a few lines:
(§1)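 Water-diluted formulations of each compound (acetone/alcohol 50:50 with 23 g/L and 13 g/L emulsifier blends) are sprayed over both leaf faces to runoff. After a standard exposure period, percent kill and phytotoxicity are recorded.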

Test [8] concerns Twospotted spider mites (Tetranychus urticae Koch). Put plainly: Mite/insect screen, sprayed squash cotyledons (SM). To be noted: Tetranychus urticae, percent mortality, read-out: SM RESULTS %; for mortality at 400 ppm: spray rate 400 ppm; for mortality at 200 ppm: spray rate 200 ppm. In a few lines: as §1
Test [9] has as its system melon aphids (Aphis gossypii Glover). Put plainly: Mite/insect screen, sprayed squash cotyledons (MA). The note with it: Aphis gossypii, percent mortality, read-out: MA RESULTS %; for mortality at 400 ppm: spray rate 400 ppm; for mortality at 200 ppm: spray rate 200 ppm. In a few lines:
as §1

As for `CCC(COc1ncnc2ccccc12)c1ccc(-c2ccccc2)cc1` (stereo not shown) [Example 142, 4-[2-(1,1'-biphenyl)-4-ylbutoxy]quinazoline], the “POWD MDEW” value in [1] was “+ (+ = 20-89% control at 400 ppm)”. In test [2], the “RICE BLAST” value is “++ (++ = 90-100% control at 400 ppm)”. In test [3], the “LEAF RUST” value is “+ (+ = 20-89% control at 400 ppm)”. For the same compound, in test [4], the “GRAY MOLD” value is recorded as “- (- = 0-19% control at 400 ppm)”. Also, the “DOWN MDEW” value in [5] is listed as “- (- = 0-19% control at 400 ppm)”. Also, the mortality at 24 ppm in test [6] was 0%. Further, the values for the mortality at 400 ppm in test [7], in test [8] and in test [9] were 0%, 60% and 30%, respectively.

With `CC(C)c1ccc(CCCOc2ncnc3ccccc23)cc1` [Example 143, 4-[3-[4-(1-methylethyl)phenyl]propoxy]quinazoline], in test [1], the “POWD MDEW” value is given as “+ (+ = 20-89% control at 400 ppm)”. Also, the “RICE BLAST” value in test [2] was “++ (++ = 90-100% control at 400 ppm)”. Moreover, the “LEAF RUST” value in test [3] is given as “- (- = 0-19% control at 400 ppm)”. In addition, the “GRAY MOLD” value in [4] is “- (- = 0-19% control at 400 ppm)”. Also, in test [5], the “DOWN MDEW” value is listed as “++ (++ = 90-100% control at 400 ppm)”. In [6], the mortality at 12 ppm was 0% and the mortality at 24 ppm came out at 0%. Moreover, in test [7], the mortality at 200 ppm is 80% and the mortality at 400 ppm turned out to be 0%. Besides, in test [8], the mortality at 200 ppm turned out to be 0% and the mortality at 400 ppm came out at 0%. Moreover, in [9], the mortality at 200 ppm was determined as 0% and the mortality at 400 ppm came out at 0%.

As for `Fc1ccc(-c2ccc(CCOc3ncnc4ccccc34)cc2)cc1` [Example 144, 4-[2-(4'-fluoro-1,1'-biphenyl)-4-ylethoxy]quinazoline], the “POWD MDEW” value in test [1] is “+++ (+++ = 90-100% control at 100 ppm)”. In addition, the “RICE BLAST” value in test [2] is recorded as “+++ (+++ = 90-100% control at 100 ppm)”. For the same compound, in [3], the “LEAF RUST” value is recorded as “+++ (+++ = 90-100% control at 100 ppm)”. Also, the “GRAY MOLD” value in [4] is recorded as “- (- = 0-19% control at 400 ppm)”. Further, the “DOWN MDEW” value in test [5] is given as “+++ (+++ = 90-100% control at 100 ppm)”. Besides, in [6], the mortality at 12 ppm was 100% and the mortality at 24 ppm is 40%. In addition, in [7], the mortality at 200 ppm came to 40% and the mortality at 400 ppm stood at 0%. The mortality at 400 ppm in [8] amounted to 100%. In addition, in test [9], the mortality at 200 ppm was found to be 60% and the mortality at 400 ppm is 100%.

For the compound `FC(F)(F)c1cccc(C(F)(F)F)c1CCOc1ncnc2ccccc12` [Example 145, 4-[2-[2,6-bis(trifluoromethyl)phenyl]ethoxy]quinazoline], the “POWD MDEW” value in [1] was “+ (+ = 20-89% control at 400 ppm)”. In addition, the “RICE BLAST” value in test [2] is reported as “+++ (+++ = 90-100% control at 100 ppm)”. Besides, the “LEAF RUST” value in test [3] was “+ (+ = 20-89% control at 400 ppm)”. For the same compound, the “GRAY MOLD” value in test [4] is “- (- = 0-19% control at 400 ppm)”. Besides, in test [5], the “DOWN MDEW” value was “++ (++ = 90-100% control at 400 ppm)”. Further, in test [6], the mortality at 12 ppm turned out to be 0% and the mortality at 24 ppm amounted to 0%. Further, in test [7], the mortality at 200 ppm was determined as 0% and the mortality at 400 ppm came out at 0%. Also, in test [8], the mortality at 200 ppm amounted to 80% and the mortality at 400 ppm worked out at 0%. For the same compound, in test [9], the mortality at 200 ppm came to 80% and the mortality at 400 ppm came to 80%.

For `CC(C)Oc1cccc(CCOc2ncnc3ccccc23)c1` [Example 146, 4-[2-[3-(1-methylethoxy)phenyl]ethoxy]quinazoline], in [1], the “POWD MDEW” value is listed as “++ (++ = 90-100% control at 400 ppm)”. Besides, the “RICE BLAST” value in test [2] is “+++ (+++ = 90-100% control at 100 ppm)”. Further, in test [3], the “LEAF RUST” value was “++ (++ = 90-100% control at 400 ppm)”. Moreover, the “GRAY MOLD” value in test [4] is on record as “+ (+ = 20-89% control at 400 ppm)”. Also, the “DOWN MDEW” value in test [5] is given as “+++ (+++ = 90-100% control at 100 ppm)”. In [6], the mortality at 12 ppm is 0% and the mortality at 24 ppm was found to be 0%. Besides, in test [7], the mortality at 200 ppm was 0% and the mortality at 400 ppm stood at 0%. In [8], the mortality at 200 ppm is 100% and the mortality at 400 ppm is 60%. In [9], the mortality at 200 ppm is 100% and the mortality at 400 ppm is 80%.

Take `COc1cc(CCOc2ncnc3ccccc23)ccc1O` [Example 147]: in [1], the “POWD MDEW” value was “+++ (+++ = 90-100% control at 100 ppm)”. Also, the “RICE BLAST” value in test [2] is “- (- = 0-19% control at 400 ppm)”. Besides, in [3], the “LEAF RUST” value is recorded as “+++ (+++ = 90-100% control at 100 ppm)”. Also, the “GRAY MOLD” value in test [4] was “- (- = 0-19% control at 400 ppm)”. Besides, the “DOWN MDEW” value in [5] is “+++ (+++ = 90-100% control at 100 ppm)”. In [6], the mortality at 12 ppm worked out at 0%. Further, the mortality at 24 ppm in test [6] is 0%. Further, the mortality at 200 ppm in test [7] was determined as 0%; in test [8], 0%; in test [9] it was 50%. Besides, the mortality at 400 ppm in [7], in [8] and in [9] was 0% each time.

Turning to `C=CC(CCc1ccccc1)Oc1ncnc2ccccc12` (stereo not shown) [Example 148, 4-[(1-benzyl-3-buten-2-yl)oxy]quinazoline], the “POWD MDEW” value in test [1] is “++ (++ = 90-100% control at 400 ppm)”. For the same compound, in test [2], the “RICE BLAST” value is given as “++ (++ = 90-100% control at 400 ppm)”. Also, in [3], the “LEAF RUST” value is reported as “+ (+ = 20-89% control at 400 ppm)”. For the same compound, in test [4], the “GRAY MOLD” value is “- (- = 0-19% control at 400 ppm)”. In addition, in [5], the “DOWN MDEW” value is “++ (++ = 90-100% control at 400 ppm)”. Besides, the mortality at 24 ppm in [6] is 0%. The mortality at 400 ppm in [7], in [8] and in test [9] was 0% each time.

Regarding `CC(C)(C)c1ccc(CCCOc2ncnc3c(F)cccc23)cc1` [Example 149, 8-fluoro-4-[3-[4-(1,1-dimethylethyl)phenyl]propoxy]quinazoline], the “POWD MDEW” value in test [1] is “++ (++ = 90-100% control at 400 ppm)”. In test [2], the “RICE BLAST” value is “- (- = 0-19% control at 400 ppm)”. For the same compound, the “LEAF RUST” value in [3] is given as “- (- = 0-19% control at 400 ppm)”. Moreover, the “GRAY MOLD” value in [4] was “- (- = 0-19% control at 400 ppm)”. Further, in test [5], the “DOWN MDEW” value is given as “- (- = 0-19% control at 400 ppm)”. In [6], the mortality at 12 ppm was found to be 0% and the mortality at 24 ppm came to 0%. In test [7], the mortality at 200 ppm came to 0% and the mortality at 400 ppm turned out to be 0%. In [8], the mortality at 200 ppm is 0% and the mortality at 400 ppm was 0%. Besides, in test [9], the mortality at 200 ppm was 0% and the mortality at 400 ppm came out at 0%.

As for `c1ccc(Oc2ccc(CCCOc3ncnc4ccccc34)cc2)cc1` [Example 151, 4-[3-(4-phenoxyphenyl)propoxy]quinazoline], the “POWD MDEW” value in [1] is “+ (+ = 20-89% control at 400 ppm)”. In addition, the “RICE BLAST” value in test [2] is given as “- (- = 0-19% control at 400 ppm)”. In test [3], the “LEAF RUST” value was “- (- = 0-19% control at 400 ppm)”. In addition, the “GRAY MOLD” value in test [4] is “- (- = 0-19% control at 400 ppm)”. For the same compound, the “DOWN MDEW” value in [5] is “- (- = 0-19% control at 400 ppm)”. Besides, in test [6], the mortality at 12 ppm came out at 0% and the mortality at 24 ppm amounted to 0%. In addition, in test [7], the mortality at 200 ppm was 0% and the mortality at 400 ppm came out at 0%. Moreover, in test [8], the mortality at 200 ppm was 0% and the mortality at 400 ppm was 0%. Besides, in test [9], the mortality at 200 ppm turned out to be 80% and the mortality at 400 ppm was found to be 0%.

Take `CC(C)c1ccc(CCCOc2ncnc3c(F)cccc23)cc1` [Example 152, 8-fluoro-4-[3-[4-(1-methylethyl)phenyl]propoxy]quinazoline]: the “POWD MDEW” value in test [1] is listed as “+++ (+++ = 90-100% control at 100 ppm)”. The “RICE BLAST” value in test [2] is listed as “+ (+ = 20-89% control at 400 ppm)”. Also, the “LEAF RUST” value in test [3] is “+ (+ = 20-89% control at 400 ppm)”. In [4], the “GRAY MOLD” value is given as “- (- = 0-19% control at 400 ppm)”. Also, the “DOWN MDEW” value in test [5] is reported as “+ (+ = 20-89% control at 400 ppm)”. In test [6], the mortality at 12 ppm is 0% and the mortality at 24 ppm came to 0%. Further, in test [7], the mortality at 200 ppm was 0% and the mortality at 400 ppm was determined as 0%. For the same compound, in [8], the mortality at 200 ppm is 90% and the mortality at 400 ppm came to 60%. In [9], the mortality at 200 ppm turned out to be 40% and the mortality at 400 ppm is 80%.
